Reference: US11779600B2, “Methods of treating or preventing alzheimer's disease and associated conditions” (CEDARS-SINAI MEDICAL CENTER, priority 2016, dated 2023)

Test system: iNOS
Experiment: iNOS expression in macrophages by quantitative ICC
Assay type: cell-based, mouse
Details: 24 hours treatment, then fAβ1-42 for 30 min; quantitative ICC (FIG. 16D)
Experimental: To test amyloid-β phagocytosis by macrophage, in repeated experiments monocytes were isolated from the bone marrow of wild-type mice (n=18 mice) and differentiated into macro-phage by 7-day cultivation in complete RPMI-1640 medium (#21870; Life Technologies) with 10% serum and 20 ng/ml MCSF (#315-02; PeproTech). Bone marrow-derived macrophages (MΦBM) were generated from femurs and tibiae cultured for 6-7 days in complete RPMI 1640 medium (Life Technologies) with 10% FBS, 100 U/ml penicillin, 100 μg/ml streptomycin, 2 mM L-glutamine and 20 ng/ml MCSF (PeproTech). Primary cultures of macrophage were then plated at 1.2×10^5 cells per well (3-4 wells for each condition) in 24-well tissue-culture plates on glass cover-slips overnight. […] The fluorescent signal and its total area were determined and quantified by the conversion of individual images to greyscale and standardizing to baseline using histogram-based thresholds with NIH ImageJ software. […]
The expression of inducible nitric oxide synthase (iNOS), a hallmark of the proinflammatory M1 macrophage phenotype, in different treatment groups was assessed next (FIG. 16C-16D). […] Quantitative ICC assays confirmed a significant ˜1.3-fold increase in iNOS expression by minocycline-treated macrophages, and a substantial 48% reduction in Aβ^1-42 phagocytosis. […]

glatiramer acetate [GA]
reduction of iNOS production: 28%
